According to US10093646B2, “1-pyridazin-/triazin-3-yl-piper(-azine)/idine/pyrolidine derivatives and compositions thereof for inhibiting the activity of SHP2” (Novartis AG, priority 2014, dated 2018):

Target: SHP2 (Homo sapiens (Human), UniProt Q06124)
Test: SHP2 Allosteric Inhibition Assay (DiFMUP prompt fluorescence)
Format: biochemical
Details: 0.5 nM SHP2 activated with 0.5 μM peptide IRS1_pY1172(dPEG8)pY1222, substrate DiFMUP
Text: SHP2 Allosteric Inhibition Assay
SHP2 is allosterically activated through binding of bis-tyrosyl-phosphorylated peptides to its Src Homology 2 (SH2) domains.

Sequence of SHP2 (Q06124 whole entry): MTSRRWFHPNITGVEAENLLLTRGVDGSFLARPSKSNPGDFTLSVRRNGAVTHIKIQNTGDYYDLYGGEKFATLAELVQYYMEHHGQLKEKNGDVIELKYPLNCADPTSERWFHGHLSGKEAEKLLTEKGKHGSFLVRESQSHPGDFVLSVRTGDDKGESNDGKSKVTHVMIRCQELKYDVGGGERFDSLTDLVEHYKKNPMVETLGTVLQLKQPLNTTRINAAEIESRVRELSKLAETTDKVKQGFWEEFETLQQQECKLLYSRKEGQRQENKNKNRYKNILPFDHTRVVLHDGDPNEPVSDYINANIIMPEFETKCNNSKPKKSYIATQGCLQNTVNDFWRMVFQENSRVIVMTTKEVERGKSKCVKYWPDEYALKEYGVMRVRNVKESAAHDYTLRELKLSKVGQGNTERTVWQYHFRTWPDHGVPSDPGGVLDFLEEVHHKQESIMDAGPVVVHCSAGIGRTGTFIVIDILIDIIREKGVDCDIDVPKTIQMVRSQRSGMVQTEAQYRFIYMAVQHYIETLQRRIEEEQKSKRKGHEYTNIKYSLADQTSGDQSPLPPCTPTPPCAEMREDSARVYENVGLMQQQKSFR

SMILES	IC50
Nc1nc(N2CCC3NCCC3C2)cnc1-c1cccc(Cl)c1Cl (stereo not shown) [Example 10]	908 nM
NCC1(c2ccccn2)CCN(c2cnc(-c3cccc(Cl)c3Cl)c(N)n2)CC1 [Example 19]	110 nM
Nc1nc(N2CC3CNCC32)cnc1-c1cccc(Cl)c1Cl (stereo not shown) [Example 20]	404 nM
NCC1(c2cnccn2)CCN(c2cnc(-c3cccc(Cl)c3Cl)c(N)n2)CC1 [Example 18]	93 nM
CCCC1(CN)CCN(c2cnc(-c3cccc(Cl)c3Cl)c(N)n2)CC1 [Example 15]	75 nM
Nc1nc(N2CC3C(N)C3C2)cnc1-c1cccc(Cl)c1Cl (stereo not shown) [Example 13]	65 nM
NCC1(c2ccccc2)CCN(c2cnc(-c3cccc(Cl)c3Cl)c(N)n2)CC1 [Example 12]	65 nM
NCC1(c2ccncc2)CCN(c2cnc(-c3cccc(Cl)c3Cl)c(N)n2)CC1 [Example 17]	102 nM
C[C@]1(N)CCN(c2cnc(-c3cccc(Cl)c3Cl)c(N)n2)C[C@@H]1O [Example 16]	93 nM
Nc1nc(N2CC3CNCC3C2)cnc1-c1cccc(Cl)c1Cl (stereo not shown) [Example 21]	102 nM
